Key:
MAGL = target: T1, MAGL (Mus musculus, UniProt O35678); test: In vitro competitive activity-based protein profiling (mouse), MAGL gel band; format: biochemical; conditions: for inhibition at 1 µM: read-out: MAGL % inh. 1 μM; for IC50: mouse
T1 construct: Proteomes (mouse brain membrane fraction or cell lysates); from tissue; host or cells: mouse brain membrane fraction (or cell lysates)
T1 sequence (O35678 1-303): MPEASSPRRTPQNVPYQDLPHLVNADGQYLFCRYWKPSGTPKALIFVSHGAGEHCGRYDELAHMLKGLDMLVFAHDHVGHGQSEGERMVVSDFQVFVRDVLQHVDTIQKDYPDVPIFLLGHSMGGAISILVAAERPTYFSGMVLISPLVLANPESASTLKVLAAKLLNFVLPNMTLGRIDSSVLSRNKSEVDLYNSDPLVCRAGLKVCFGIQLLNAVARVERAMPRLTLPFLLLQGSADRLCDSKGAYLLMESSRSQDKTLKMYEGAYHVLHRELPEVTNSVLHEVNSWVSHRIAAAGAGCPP
Protocol: (§1) In Vitro Competitive Activity-Based Protein Profiling (Mouse).
(§2) Proteomes (mouse brain membrane fraction or cell lysates) (50 μL, 1.0 mg/mL total protein concentration) were preincubated with varying concentrations of inhibitors at 37° C. After 30 min, FP-Rh or HT-01 (1.0 μL, 50 μM in DMSO) was added and the mixture was incubated for another 30 min at 37° C. Reactions were quenched with SDS loading buffer (15 μL—4×) and run on SDS-PAGE. Following gel imaging, serine hydrolase activity was determined by measuring fluorescent intensity of gel bands corresponding to MAGL, ABHD6, and FAAH, using ImageJ 1.43u software.

FAAH = target: T2, FAAH (Mus musculus, UniProt O08914); test: In vitro competitive activity-based protein profiling (mouse), FAAH gel band; format: biochemical; conditions: for inhibition at 1 µM: read-out: FAAH % inh. 1 μM; for IC50: mouse
T2 construct: Proteomes (mouse brain membrane fraction or cell lysates); from tissue; host or cells: mouse brain membrane fraction (or cell lysates)
T2 sequence (O08914 1-579): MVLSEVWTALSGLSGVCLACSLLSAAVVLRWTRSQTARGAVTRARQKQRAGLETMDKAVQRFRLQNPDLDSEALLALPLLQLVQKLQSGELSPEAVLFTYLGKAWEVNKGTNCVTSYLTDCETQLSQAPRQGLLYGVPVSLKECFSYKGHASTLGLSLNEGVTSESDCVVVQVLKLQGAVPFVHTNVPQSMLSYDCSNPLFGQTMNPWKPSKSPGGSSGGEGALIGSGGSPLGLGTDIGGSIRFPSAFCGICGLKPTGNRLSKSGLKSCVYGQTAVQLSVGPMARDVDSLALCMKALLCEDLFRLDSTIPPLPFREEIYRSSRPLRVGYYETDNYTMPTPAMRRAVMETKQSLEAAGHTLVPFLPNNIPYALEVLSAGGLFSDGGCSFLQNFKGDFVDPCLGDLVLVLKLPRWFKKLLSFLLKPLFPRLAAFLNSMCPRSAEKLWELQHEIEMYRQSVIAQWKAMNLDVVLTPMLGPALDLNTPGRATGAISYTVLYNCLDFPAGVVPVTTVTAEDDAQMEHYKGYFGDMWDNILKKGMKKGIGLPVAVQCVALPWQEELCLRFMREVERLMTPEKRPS
Protocol: as §1, §2

Compound	inhibition at 1 µM (MAGL) [%]	inhibition at 1 µM (FAAH) [%]	IC50 (MAGL) [nM]	IC50 (FAAH) [nM]
CS(=O)(=O)Nc1ccn(C(=O)N2CCC3(CCCN3Cc3ccc(Cl)cc3N3CCCC3)CC2)n1 [Example 131, N-(1-(1-(4-chloro-2-(pyrrolidin-1-yl)benzyl)-1,8-diazaspiro[4.5]decane-8-carbonyl)-1H-pyrazol-3-yl)methanesulfonamide]	50 to 75	0 to 25		
CC(=O)Nc1ccn(C(=O)N2CCN(Cc3ccc(C(F)(F)F)cc3Oc3nc4ccccc4s3)CC2)n1 [Example 75, N-(1-(4-(2-(benzo[d]thiazol-2-yloxy)-4-(trifluoromethyl)benzyl)piperazine-1-carbonyl)-1H-pyrazol-3-yl)acetamide]	≥ 75	0 to 25	≤ 100	1000 to 10000
CC(=O)Nc1ccn(C(=O)N2CCC3(CCCN3Cc3ccc(Cl)cc3N3CCN(S(C)(=O)=O)CC3)CC2)n1 [Example 35, N-(1-(1-(4-chloro-2-(4-(methylsulfonyl)piperazin-1-yl)benzyl)-1,8-diazaspiro[4.5]decane-8-carbonyl)-1H-pyrazol-3-yl)acetamide]	≥ 75	0 to 25	100 to 1000	1000 to 10000
CC(=O)Nc1ccn(C(=O)N2CCC3(CCCN3Cc3ccc(C(F)(F)F)cc3N3CCCC3)CC2)n1 [Example 8, N-(1-(1-(2-(pyrrolidin-1-yl)-4-(trifluoromethyl)benzyl)-1,8-diazaspiro[4.5]decane-8-carbonyl)-1H-pyrazol-3-yl)acetamide]	≥ 75	0 to 25	≤ 100	1000 to 10000
CCN1CCN(c2cc(Cl)ccc2CN2CCN(C(=O)n3ccc(NC(C)=O)n3)CC2)CC1 [Example 59, N-(1-(4-(4-chloro-2-(4-ethylpiperazin-1-yl)benzyl)piperazine-1-carbonyl)-1H-pyrazol-3-yl)acetamide]	≥ 75	0 to 25	100 to 1000	1000 to 10000
CC(=O)Nc1ccn(C(=O)N2CCC3(CCCN3Cc3ccc(C(F)(F)F)cc3N3CCN(C(C)=O)CC3)CC2)n1 [Example 22, N-(1-(1-(2-(4-acetylpiperazin-1-yl)-4-(trifluoromethyl)benzyl)-1,8-diazaspiro[4.5]decane-8-carbonyl)-1H-pyrazol-3-yl)acetamide]	≥ 75	0 to 25	100 to 1000	1000 to 10000
CC(=O)Nc1ccn(C(=O)N2CCC3(CCCN3Cc3ccc(C)c(C(F)(F)F)c3)CC2)n1 [Example 23, N-(1-(1-(4-methyl-3-(trifluoromethyl)benzyl)-1,8-diazaspiro[4.5]decane-8-carbonyl)-1H-pyrazol-3-yl)acetamide]	≥ 75	0 to 25	≤ 100	1000 to 10000
CC(=O)Nc1ccn(C(=O)N2CCN(Cc3ccc(C(F)(F)F)cc3OC3CCS(=O)(=O)CC3)CC2)n1 [Example 77, N-(1-(4-(2-((1,1-dioxidotetrahydro-2H-thiopyran-4-yl)oxy)-4-(trifluoromethyl)benzyl)piperazine-1-carbonyl)-1H-pyrazol-3-yl)acetamide]	≥ 75	0 to 25		
CC(=O)Nc1ccn(C(=O)N2CCC3(CCCN3Cc3ccc(C(F)(F)F)cc3N3CCN(C4CC4)CC3)CC2)n1 [Example 30, N-(1-(1-(2-(4-cyclopropylpiperazin-1-yl)-4-(trifluoromethyl)benzyl)-1,8-diazaspiro[4.5]decane-8-carbonyl)-1H-pyrazol-3-yl)acetamide]	≥ 75	0 to 25	100 to 1000	1000 to 10000
CC(=O)Nc1ccn(C(=O)N2CCC3(CCCN3Cc3ccc(Cl)cc3N3CCC(F)(F)CC3)CC2)n1 [Example 11, N-(1-(1-(4-chloro-2-(4,4-difluoropiperidin-1-yl)benzyl)-1,8-diazaspiro[4.5]decane-8-carbonyl)-1H-pyrazol-3-yl)acetamide]	≥ 75	0 to 25	100 to 1000	1000 to 10000
CS(=O)(=O)Nc1ccn(C(=O)N2CCN(Cc3ccc(C(F)(F)F)c(C4CCN(CC(=O)O)CC4)c3)CC2)n1 [Example 119, 2-(4-(5-((4-(3-(methylsulfonamido)-1H-pyrazole-1-carbonyl)piperazin-1-yl)methyl)-2-(trifluoromethyl)phenyl)piperidin-1-yl)acetic Acid]			≤ 100	

More lines, now with the values ahead:

inhibition at 1 µM (MAGL) [%]	inhibition at 1 µM (FAAH) [%]	IC50 (MAGL) [nM]	IC50 (FAAH) [nM]	Compound
0 to 25	0 to 25			CS(=O)(=O)Nc1ccn(C(=O)N2CCC3(CCCN3Cc3cccc(Cl)c3)CC2)n1 [Example 148, N-(1-(1-(3-chlorobenzyl)-1,8-diazaspiro[4.5]decane-8-carbonyl)-1H-pyrazol-3-yl)methanesulfonamide]
≥ 75	0 to 25	100 to 1000	1000 to 10000	CS(=O)(=O)Nc1ccn(C(=O)N2CCC3(CCCN3Cc3ccc(C(F)(F)F)cc3N3CCCCC3)CC2)n1 [Example 133, N-(1-(1-(2-(piperidin-1-yl)-4-(trifluoromethyl)benzyl)-1,8-diazaspiro[4.5]decane-8-carbonyl)-1H-pyrazol-3-yl)methanesulfonamide]
≥ 75	0 to 25			CC(=O)Nc1ccn(C(=O)N2CCN(Cc3ccc(C(F)(F)F)cc3N3CCC(C(N)=O)CC3)CC2)n1 [Example 274, 1-(2-((4-(3-acetamido-1H-pyrazole-1-carbonyl)piperazin-1-yl)methyl)-5-(trifluoromethyl)phenyl)piperidine-4-carboxamide]
≥ 75	0 to 25			CC(=O)NC1CCN(c2cc(CN3CCN(C(=O)n4ccc(NS(C)(=O)=O)n4)CC3)ccc2C(F)(F)F)CC1 [Example 279, N-(1-(5-((4-(3-(methylsulfonamido)-1H-pyrazole-1-carbonyl)piperazin-1-yl)methyl)-2-(trifluoromethyl)phenyl)piperidin-4-yl)acetamide]
≥ 75	0 to 25			CS(=O)(=O)Nc1ccn(C(=O)N2CCC3(CCCN3Cc3cc(N4CCCC4)cc(C(F)(F)F)c3)CC2)n1 [Example 163, N-(1-(1-(3-(pyrrolidin-1-yl)-5-(trifluoromethyl)benzyl)-1,8-diazaspiro[4.5]decane-8-carbonyl)-1H-pyrazol-3-yl) methanesulfonamide]
0 to 25	0 to 25			CS(=O)(=O)Nc1ccn(C(=O)N2CCN(Cc3cc(N4CCOCC4)ccc3Cl)CC2)n1 [Example 258, N-(1-(4-(2-chloro-5-morpholinobenzyl)piperazine-1-carbonyl)-1H-pyrazol-3-yl) methanesulfonamide]
≥ 75	0 to 25			CS(=O)(=O)Nc1ccn(C(=O)N2CCN(Cc3ccc(C(F)(F)F)c(N4CCN5CCC[C@@H]5C4)c3)CC2)n1 [Example 278, (R)-N-(1-(4-(3-(hexahydropyrrolo[1,2-a]pyrazin-2(1H)-yl)-4-(trifluoromethyl)benzyl)piperazine-1-carbonyl)-1H-pyrazol-3-yl) methanesulfonamide]
≥ 75	0 to 25			CS(=O)(=O)Nc1ccn(C(=O)N2CCN(Cc3ccc(Cl)c(-c4nnco4)c3)CC2)n1 [Example 260, N-(1-(4-(4-chloro-3-(1,3,4-oxadiazol-2-yl)benzyl)piperazine-1-carbonyl)-1H-pyrazol-3-yl) methanesulfonamide]

— patent US10519134B2, “Pyrazole compounds and methods of making and using same” (Lundbeck La Jolla Research Center, Inc., priority 2015, dated 2019)
